The results in this text go back to patent US10730885B1, “Coumarin derivatives” (KING SAUD UNIVERSITY, priority 2019, dated 2020).

As a reminder, the IC50 is the concentration that inhibits the measured activity by half. A lower IC50 goes with higher potency. Broadly, the melting point is the temperature of the solid-liquid transition.

Converted amounts (≈) assume the structure as drawn. Like-named read-outs stand apart in the source and are kept apart here.

Data set [1] in a line: DPPH microplate radical scavenging antioxidant assay. The format is biochemical. Particulars: for IC50: DPPH, 30 min, mean ± SD (n = 3); for antioxidant activity: overview. Here is the method:
The antioxidant activity of the synthesized compounds was measured in terms of hydrogen-donating or radical scavenging ability using the DPPH microplate-based method. Absorbance measurement was obtained using Microplate/cuvette reader (Spectramax M5, Molecular Devices, California, USA). Reference standard compound ascorbic acid was used as the positive control for this assay at concentrations ranging from 1.563 to 200 μg/mL. Test samples were prepared at a starting concentration of 200 μg/mL after mixing with 100 μl of 0.2 mM DPPH methanolic solution. A series of concentrations were tested for the samples in order to determine the 50% inhibitory concentration (IC50). Samples were incubated with DPPH in the dark for 30 min at room temperature (25° C.). The DPPH solution in methanol was prepared daily and stored in a flask covered with aluminum foil. DPPH radicals have an absorption maximum (λmax) at 515 nm, in which the absorbance values were measured and converted into percentage of antioxidant activity.
Methanolic DPPH solution without antioxidant was applied as control and background control was samples in methanol only. IC50 was determined using Graphpad Prism 7 (Graphpad Software Inc. CA, USA). The percentage inhibition was calculated by using the formula:
The assay was carried out in triplicate and performed as much as possible in an area protected against light. The data points are presented as the mean±standard deviation (SD) (n=3).
In general terms: The DPPH test is a chemical assay of radical scavenging.

The test system of data set [2] is Bacillus subtilis ATCC 6633. The data set is described as follows: Agar well diffusion, primary antimicrobial screening. Format: cell-based. As to conditions: for zone of inhibition at 10000 µg/mL: Bacillus subtilis, ATCC6633, B. subtilis ATCC 6633, 100 μL of 10 mg/ml in DMSO, 24 h, read-out: Inhibition Diameter Zone BS; for antibacterial activity compared with reference drug: B. subtilis. The source says: (§1) The newly synthesized compounds were individually tested for their in vitro antimicrobial activity against the standard bacteria strains of American Type Culture Collection (ATCC), namely, Staphylococcus aureus ATCC 29213, Bacillus subtilis ATCC 6633, Bacillus megaterium ATCC 9885 (Gram-positive), Escherichia coli ATCC 2592 and Pseudomonas aeruginosa ATCC 27953 (Gram-negative). In addition, they were microbiologically tested against the locally isolated Saccharomyces cerevisiae (yeast) and the standard strain of Agricultural Research Service Culture Collection (NRRL) of the yeast like pathogenic fungus Candida albicans NRRL Y-477. The primary screening was carried out using the agar well diffusion method using nutrient agar (NA) medium and Sabourand dextrose agar (SDA) medium for pathological tested bacteria and yeast, respectively.
(§2) Antimicrobial tests were carried out by the agar well diffusion method using 100 μL of suspension containing 1×10^8 CFU/mL of pathological tested bacteria and 1×10^6 CFU/ml of yeast spread on NA and SDA, respectively. After the media was cooled and solidified, wells (10 mm in diameter) were made in the solidified agar and loaded with 100 μL of tested compound solution prepared by dissolving 10 mg of the chemical compound in one ml of dimethyl sulfoxide (DMSO). The inculcated plates were then incubated for 24 h at 37° C. for bacteria and yeast. Negative controls were prepared using DMSO employed for dissolving the tested compound. Ciprofloxacin (10 mg/ml) and ketoconazole (10 mg/ml) were used as standard for antibacterial and antifungal activity, respectively. After incubation time, antimicrobial activity was evaluated by measuring the zone of inhibition against the test organisms and compared with that of the standard. Antimicrobial activities were expressed as inhibition diameter zones in millimeters (mm). The experiment was carried out in triplicate and the average zone of inhibition was calculated.

For data set [3], the system named is Bacillus megaterium ATCC 9885. The description is as above. Format: cell-based. Particulars: Priestia megaterium, ATCC9885; B. megaterium ATCC 9885; 100 μL of 10 mg/ml in DMSO, 24 h; read-out: Inhibition Diameter Zone BM.
Description: as §1, §2

Data set [4] has as its system trypsin. In words: Proteinase inhibitory activity (trypsin/casein). As to conditions: for % Inhibition of proteinase activity: 250 μg/ml, mean ± SD (n = 3). Format: biochemical. As for the experimental part: For proteinase inhibitory activity, the reaction mixture (2 ml) contained 0.06 mg trypsin, 20 mM Tris HCl buffer (pH 7.4) and 1 ml test sample (250 μg/ml for each compound). The mixture was incubated for 5 min and then 1 ml of 0.8% (w/v) casein was added. The mixture was incubated for an additional 20 min. 1 ml of 10% perchloric acid was added to arrest the reaction. The cloudy suspension was centrifuged, and the absorbance of the supernatant was read at 280 nm. Reference standard compound aspirin was used as the positive control for this assay. The experiment was performed in triplicate. Percentage inhibition of […] was calculated by using the following formula:
[formula] where Acontrol is the absorbance of the control reaction and Atest is the absorbance of the control reaction with sample.

Data set [5] concerns Saccharomyces cerevisiae (local isolate). In words: Agar well diffusion, primary antimicrobial screening. The format is cell-based. As to conditions: for zone of inhibition at 10000 µg/mL: Saccharomyces cerevisiae, 24 h, read-out: Inhibition Diameter Zone SC.
Description: as §1, §2

Data set [6] has as its system Candida albicans NRRL Y-477. Described as above. The format is cell-based. Particulars: for zone of inhibition at 10000 µg/mL: Candida albicans, NRRLY477, C. albicans NRRL Y-477, 100 μL of 10 mg/ml in DMSO, 24 h, read-out: Inhibition Diameter Zone CA; for antifungal activity compared with reference drug: C. albicans.
Description: as §1, §2

Data set [7] deals with Staphylococcus aureus ATCC 29213. The data set is described as above. The format is cell-based. Particulars: S. aureus.
Description: as §1, §2

The subject of data set [8] is tested microorganisms. In words: Agar well diffusion, summary over the tested microorganisms. The format is cell-based. As to conditions: against one or more microorganisms.
Description: as §1, §2
In general terms: A growth-free zone around the sample is the usual read-out of agar diffusion tests.

Data set [9] deals with Escherichia coli ATCC 2592. The data set is described as follows: Agar well diffusion, primary antimicrobial screening. The format is cell-based. As to conditions: E. coli.
Description: as §1, §2

[10] abbreviates: S. cerevisiae local isolate, 100 μL of 10 mg/ml in DMSO.

For `Cc1ccc2oc(=O)c3c(c2c1)OC(N)=C(C(N)=O)C3c1ccco1` (racemic) [Compound 6b, (±)-2-amino-4-(furan-2-yl)-9-methyl-5-oxo-4H,5H-pyrano[3,2-c]chromene-3-carboxamide], the melting point lay in the range of 202 to 204 °C. The IC50 in [1] was 48.38 ± 4.61 µg/mL (≈ 143 µM). Further, the zone of inhibition at 10000 µg/mL in [2] is less than 15 mm. For the same compound, the zone of inhibition at 10000 µg/mL in data set [3] is less than 15 mm. For the same compound, the “in vitro anti-proteinase activity compared with aspirin” value in data set [4] is “more potent”. In addition, the “% Inhibition of proteinase activity” value in [4] (listed as 6h) came out at 49.28 ± 10.93%.

`Cc1ccc2oc(=O)c3c(c2c1)OC(N=CN(C)C)=C(C#N)C3c1ccco1` (racemic) [Compound 7b, (±)-N′-(3-cyano-4-(furan-2-yl)-9-methyl-5-oxo-4H,5H-pyrano[3,2-c]chromen-2-yl)-N,N-dimethylformimidamide] came in with a melting point of 273 to 275 °C. Further, in [1], the IC50 entry was “— ((—): inactive (IC50 > 200 μg/mL))”. Besides, in data set [5], the zone of inhibition at 10000 µg/mL is less than 15 mm. Moreover, in [2], the zone of inhibition at 10000 µg/mL is less than 15 mm. For the same compound, in data set [6], the zone of inhibition at 10000 µg/mL was less than 15 mm. For the same compound, in data set [3], the zone of inhibition at 10000 µg/mL was less than 15 mm. In addition, the “% Inhibition of proteinase activity” value in data set [4] came to 33.17 ± 2.79%.

Compound `Cc1ccc2oc(=O)c3c(c2c1)OC(N=Cc1ccccc1)=C(C#N)C3c1ccco1` (racemic) [Compound 8b, (±)-2-(benzylideneamino)-4-(furan-2-yl)-9-methyl-5-oxo-4H,5H-pyrano[3,2-c]chromene-3-carbonitrile] came in with a melting point of 250 to 252 °C.

Consider `O=C1O[C@H]([C@@H](O)CO)C(O)=C1O` [Ascorbic acid, ascorbic acid, reference compound], for which the IC50 in [1] is 2.83 ± 0.166 µg/mL (≈ 16.1 µM).

As to `CC(=O)Oc1ccccc1C(=O)O` [Aspirin, aspirin, reference compound], the “% Inhibition of proteinase activity” value in data set [4] is listed as 45.83 ± 4.21%.

Regarding `O=C(O)c1cn(C2CC2)c2cc(N3CCNCC3)c(F)cc2c1=O` [Ciprofloxacin, reference compound], the zone of inhibition at 10000 µg/mL in data set [5] (setting [10]) and in [6] was less than 15 mm throughout.

`NS(=O)(=O)c1ccc(NS(=O)(=O)c2c(O)c3cc(Cl)ccc3oc2=O)cc1` [Compound 10a, 6-Chloro-4-hydroxy-2-oxo-N-(4-sulfamoylphenyl)-2H-chromene-3-sulfonamide] showed a melting point of 245 to 247 °C. This compound displayed an IC50 in [1] of 93.12 ± 0.727 µg/mL (≈ 216 µM). Further, in [2], the “antibacterial activity compared with reference drug” value is listed as “comparable antibacterial activities to the standard”. Also, the “antibacterial activity compared with ciprofloxacin” value in data set [7] is reported as “equal to ciprofloxacin”. Besides, the “antimicrobial activity compared with standard antimicrobials (ciprofloxacin and ketoconazole)” value in [8] is “equal to or higher than the standard antimicrobials”. The “% Inhibition of proteinase activity” value in data set [4] was 18.78 ± 2.05%.

Consider `O=c1oc2ccc(Cl)cc2c(O)c1S(=O)(=O)Nc1ccc(S(=O)(=O)Nc2nccs2)cc1` [Compound 10e, 6-chloro-4-hydroxy-2-oxo-N-(4-(N-(thiazol-2-yl)sulfamoyl)phenyl)-2H-chromene-3-sulfonamide], for which the melting point lay in the range of 215 to 217 °C. Further, the IC50 in [1] turned out to be 71.67 ± 3.231 µg/mL (≈ 139 µM).

Turning to `O=c1oc2ccc(Cl)cc2c(O)c1S(=O)(=O)Nc1ccccc1` [Compound 11a, 6-Chloro-4-hydroxy-2-oxo-N-phenyl-2H-chromene-3-sulfonamide], the melting point is 337 to 339 °C. Besides, in [1], the IC50 came to 14.51 ± 1.827 µg/mL (≈ 41.2 µM) and the “antioxidant activity” value is reported as “particularly high antioxidant activity”. Besides, the “antifungal activity compared with reference drug” value in data set [6] is “higher antifungal activity”. Moreover, the “antimicrobial activity compared with standard antimicrobials (ciprofloxacin and ketoconazole)” value in [8] is given as “equal to or higher than the standard antimicrobials”. For the same compound, in data set [4], the “in vitro anti-proteinase activity compared with aspirin” value was “as potent” and the “% Inhibition of proteinase activity” value was 44.7 ± 8.22%.

`Cc1ccc2oc(=O)c(S(=O)(=O)Nc3ccccc3)c(O)c2c1` [Compound 11b, 4-Hydroxy-6-methyl-2-oxo-N-phenyl-2H-chromene-3-sulfonamide] registered a melting point of 324 to 325 °C. In data set [1], the IC50 is 19.25 ± 4.171 µg/mL (≈ 58.1 µM) and the “antioxidant activity” value is “particularly high antioxidant activity”. The “% Inhibition of proteinase activity” value in [4] was determined as 14.3 ± 2.21%.

On to `Cc1ccc2oc(=O)c(S(=O)(=O)Nc3ccc(C(=O)/C=C/c4ccc([N+](=O)[O-])cc4)cc3)c(O)c2c1` [Compound 12b, (E)-4-hydroxy-6-methyl-N-(4-(3-(4-nitrophenyl)acryloyl)phenyl)-2-oxo-2H-chromene-3-sulfonamide], for which the melting point was in the range of 220 to 222 °C. Also, the IC50 result in data set [1] is “— ((—): inactive (IC50 > 200 μg/mL))”.

In the case of `Cc1ccc2oc(=O)c(S(=O)(=O)Nc3ccc(C(=O)/C=C/c4ccc(Cl)cc4)cc3)c(O)c2c1` [Compound 12d, (E)-N-(4-(3-(4-chlorophenyl)acryloyl)phenyl)-4-hydroxy-6-methyl-2-oxo-2H-chromene-3-sulfonamide], the melting point is 141 to 143 °C. Besides, the IC50 entry in data set [1] is “— ((—): inactive (IC50 > 200 μg/mL))”. Further, the “antimicrobial activity compared with ketoconazole” value in [5] (S. cerevisiae) is “higher than that of the corresponding control drug”. The zone of inhibition at 10000 µg/mL in data set [5] (setting [10]) was determined as 32 mm. The “antibacterial activity compared with reference drug” value in data set [2] is reported as “comparable antibacterial activities to the standard”. The “antifungal activity compared with reference drug” value in data set [6] was “higher antifungal activity”. In data set [9], the “antibacterial activity compared with ciprofloxacin” value is given as “higher antibacterial activity than ciprofloxacin”. Moreover, the “antibacterial activity compared with ciprofloxacin” value in data set [7] was “equal to ciprofloxacin”. The “antimicrobial activity compared with standard antimicrobials (ciprofloxacin and ketoconazole)” value in data set [8] is reported as “equal to or higher than the standard antimicrobials”. Moreover, the “% Inhibition of proteinase activity” value in data set [4] is given as 31.88 ± 3.82%.

`COc1ccc(/C=C/C(=O)c2ccc(NS(=O)(=O)c3c(O)c4cc(Cl)ccc4oc3=O)cc2)cc1` [Compound 12e, (E)-6-chloro-4-hydroxy-N-(4-(3-(4-methoxyphenyl)acryloyl)phenyl)-2-oxo-2H-chromene-3-sulfonamide] had a melting point of more than 300 °C. For the same compound, in data set [1], the IC50 result is “— ((—): inactive (IC50 > 200 μg/mL))”. Further, the “% Inhibition of proteinase activity” value in data set [4] worked out at 22.83 ± 4.88%.

For `COc1ccc(/C=C/C(=O)c2ccc(NS(=O)(=O)c3c(O)c4cc(C)ccc4oc3=O)cc2)cc1` [Compound 12f, (E)-4-hydroxy-N-(4-(3-(4-methoxyphenyl)acryloyl)phenyl)-6-methyl-2-oxo-2H-chromene-3-sulfonamide], the melting point is more than 300 °C. For the same compound, the IC50 entry in [1] is “— ((—): inactive (IC50 > 200 μg/mL))”. Further, the “% Inhibition of proteinase activity” value in data set [4] is given as 21.7 ± 7.6%.
